Consider 1 compound from patent publication US11286304B2, “Anti-galectin-7 antibody, kit comprising the same, and uses thereof” (Academia Sinica, priority 2018, dated 2022).

Assay [1] deals with galectin-7. As to the kind of experiment: Galectin-7 levels in lung cancer tumors transplanted in NOD SCID mice (IHC, immunoblot). Particulars: NOD SCID mice with A549, PC9, PC9-IR cells, 30 mg/kg daily oral gavage, day 21, vs saline. It counts as in vivo. How it is done:
NOD.CB17-Prkdcscid/JNarl mice obtained from National Laboratory Animal Center (Taiwan) were engrafted 2×10^6 lung cancer cells subcutaneously at the left and right flanks of the mice. After 10 days of tumor growth, mice were treated by oral gavage with 30 mg/kg fluvastatin or lovastatin in saline solution, or saline solution alone as control, once per day for 21 days. The tumor plaques were harvested and each of them was cut into two pieces. One piece was for immunoblot analysis, and the other one was fixed with 10% formalin and embedded into paraffin block for IHC staining. All animal studies were conducted in the experimental animal facilities of Institute of Biomedical Sciences, Academia Sinica, Taipei, Taiwan, in accordance to institutional rules and ethical guidelines for experimental animal care.
(In general: A western blot detects proteins with antibodies after separation by electrophoresis.)

The subject of assay [2] is galectin-7. As to the kind of experiment: Galectin-7 expression in keratinocytes (real-time PCR, immunoblot). The format is cell-based, human. Particulars: keratinocytes, other statin drugs, data not shown. On the procedure:
Human keratinocyte cell line HaCaT was maintained at 37° C. in Dulbecco's modified Eagle's medium (DMEM) supplemented with 10% of fetal bovine serum (FBS), 2 mM glutamine, 100 U/ml penicillin and 100 μg/ml streptomycin. Short hairpin RNA (shRNA) reagents were obtained from the National RNAi Core Facility located at the Institute of Molecular Biology and Genomic Research Center, Academia Sinica, supported by the National Core Facility Program for Biotechnology Grants of NSC. Four shRNAs with clone IDs of TRCN0000057393, TRCN0000057394, TRCN0000057395, and TRCN0000057396 were used to generate stable galectin-7 knockdown HaCaT clones. HaCaT cells were infected with one of the four shRNA-expressing lentiviruses and puromycin was employed to select stable cell clones after 3 days of infection. After puromycin selection, four individual pooled clones were cultured in puromycin-free medium for 2 weeks before further analysis.
Primary neonatal human epithelial keratinocytes, HEKn cells, were purchased from Gibco. HEKn cells were cultured at 37° C. in keratinocyte serum-free medium (K-SFM) supplemented with 30 μg/ml bovine pituitary extract and 5 ng/ml recombinant human epidermal growth factor from the same company. Compared with HaCaT cells, HEKn cells have a limited proliferation ability and are not suitable for establishing shRNA-based stable knockdown cells; therefore, a small interfering RNA (siRNA) oligo was used to transiently knock down the expression of galectin-7. The Silencer® Select siRNAs were purchased from Invitrogen, including negative control #1 and a predesigned siRNA targeting human galectin-7 (Catalog number: s230574, which targets the sequence of exon 3 of NM_002307.3). Thirty picomoles of siRNAs were delivered into HEKn cells in a 6-well plate setup by means of Lipofectamine 2000.
Cells were harvested and lysed in RIPA lysis buffer containing 1% of Triton X-100 and a protease inhibitor cocktail, and total protein concentrations were measured with a protein assay kit. Proteins in the samples of the lysates with the same amounts of total protein were separated by sodium dodecyl sulfate polyacrylamide gel electrophoresis (SDS-PAGE) and analyzed by immunoblotting. Primary antibodies against phospho-Erk1 (pT202)/Erk2 (pT185), Erk1, Erk2, NF-κB p65, phospho-NF-κB p65 (pS536), IκBα, phospho-IκBα pS32, β-actin, or GAPDH were applied to detect the corresponding proteins. Horseradish peroxidase (HRP)-conjugated secondary antibodies against mouse, rabbit, or goat IgG were then incubated with the membranes, and proteins were visualized by chemiluminescence according to the manufacturer's instructions. Protein quantification was performed by software.
Total RNAs (including mRNA and miRNA) were extracted from cultured cells or mouse ears with the TRIzol Reagent. For measurement of human galectin-7, IL-6, IL-8, IL-17A, and IFN-γ levels, mRNAs were reverse-transcribed into cDNA by means of the cDNA synthesis kit, and real-time PCR was carried out with specific probes accompanied with primers targeting humangalectin-7, IL-6, and IL-8 according to the manufacturer's instructions.
In general terms: Real-time PCR tracks product formation cycle by cycle.

As to `CC[C@H](C)C(=O)O[C@H]1C[C@@H](C)C=C2C=C[C@H](C)[C@H](CC[C@@H]3C[C@@H](O)CC(=O)O3)[C@H]21` [lovastatin], the “galectin-7 expression in transplanted tumors” value in assay [1] is listed as “increased”. For the same compound, the galectin-7 expression result in assay [2] is “induced galectin-7 expression”.
